Assays:
Echinochloa crus-galli [1] = assay: Ratio of I50 for very long-chain fatty acid elongase in Echinochloa crus-galli (barnyard grass) to EC50 for shoot elongation inhibition in Echinochloa crus-galli (barnyard grass)
Echinochloa crus-galli [2] = assay: Inhibition of shoot elongation in Echinochloa crus-galli (barnyard grass); type: functional, organism-based
[3] = Inhibition of Very long-chain fatty acid elongase in Echinochloa crus-galli (barnyard grass); details: read-out: I50

## CCOc1cc(Cl)c(CS(=O)(=O)C2=NOC(C)(C)C2)cc1Cl [FENOXASULFONE]
Echinochloa crus-galli [1]
  Ratio: 10
Echinochloa crus-galli [2]
  EC50: 30 nM
[3]
  IC50: 300 nM

## Cn1nc(C(F)(F)F)c(CS(=O)(=O)C2=NOC(C)(C)C2)c1OC(F)F [PYROXASULFONE]
Echinochloa crus-galli [1]
  Ratio: 10
Echinochloa crus-galli [2]
  EC50: 30 nM
[3]
  IC50: 300 nM
